According to patent publication US4952577A, “Methoxymethyl penem compounds” (Farmitalia Carlo Erba S.r.l., priority 1987, dated 1990):
In brackets after ≈: the same amount, converted by molar mass. Where two headings read alike, the source gives them in different places.

Legend:
S. faecalis ATCC 6057 = test: In vitro antibacterial activity (MIC); type: cell-based; settings: Enterococcus faecalis, ATCC6057
[1] = test system: Pseudomonas aeruginosa 2598; test: In vitro antibacterial activity (MIC); type: cell-based
E. cloacae P99 cef. R. = test: In vitro antibacterial activity (MIC); type: cell-based; settings: Enterobacter cloacae, P99CEF.R.
S. salivarius ATCC 9758 = test: In vitro antibacterial activity (MIC); type: cell-based; settings: Streptococcus salivarius, ATCC9758
C. freundii 4051 cef. R = test: In vitro antibacterial activity (MIC); type: cell-based; settings: Citrobacter freundii
E. aerogenes 225 = test: In vitro antibacterial activity (MIC); type: cell-based; settings: Klebsiella aerogenes
Escherichia coli G = test: Therapeutic efficacy against experimental infections in the mouse; type: in vivo; settings: therapy 0.5-1.5-6 hours after infection, read-out: ED50 (cumulative dose)
E. aerogenes F46 = test: In vitro antibacterial activity (MIC); type: cell-based; settings: Klebsiella aerogenes
S. aureus 2 MR = test: In vitro antibacterial activity (MIC); type: cell-based; settings: Staphylococcus aureus
E. coli R997 (HSM-1) = test: In vitro antibacterial activity (MIC); type: cell-based; settings: Escherichia coli
P. aeruginosa ATCC 19660 = test: In vitro antibacterial activity (MIC); type: cell-based; settings: Pseudomonas aeruginosa, ATCC19660
E. coli B cef. R = test: In vitro antibacterial activity (MIC); type: cell-based; settings: Escherichia coli
[2] = test system: Acinetobacter calcoaceticus Bg 3; test: In vitro antibacterial activity (MIC); type: cell-based; settings: BG3
P. morganii ATCC 25830 = test: In vitro antibacterial activity (MIC); type: cell-based; settings: Morganella morganii, ATCC25830
P. vulgaris 51 = test: In vitro antibacterial activity (MIC); type: cell-based; settings: Proteus vulgaris
Escherichia coli K 12 = test: In vitro antibacterial activity (MIC); type: cell-based; settings: K12
[3] = test system: K. Aerogenes 1082 E cef. R; test: In vitro antibacterial activity (MIC); type: cell-based; settings: Klebsiella aerogenes
[4] = test system: gram-positive and gram-negative bacteria; test: Control and treatment of experimental infections in the mouse; type: in vivo
[5] = test system: Shigella flexneri ATCC 11836; test: In vitro antibacterial activity (MIC); type: cell-based; settings: ATCC11836
S. aureus 39/2 Pen^+ = test: In vitro antibacterial activity (MIC); type: cell-based; settings: Staphylococcus aureus
[6] = test system: Streptococcus pyogenes ATCC 12384; test: In vitro antibacterial activity (MIC); type: cell-based; settings: ATCC12384
[7] = test system: Staphylococcus aureus Smith; test: In vitro antibacterial activity (MIC); type: cell-based
[8] = test system: S. epidermidis ATCC 12228; test: In vitro antibacterial activity (MIC); type: cell-based; settings: Staphylococcus epidermidis, ATCC12228
[9] = test system: Salmonella typhi ATCC 14028; test: In vitro antibacterial activity (MIC); type: cell-based; settings: Salmonella enterica, read-out: In vitro MIC
S. faecium ATCC 8043 = test: In vitro antibacterial activity (MIC); type: cell-based; settings: Enterococcus faecium, ATCC8043
S. faecalis 55 = test: In vitro antibacterial activity (MIC); type: cell-based; settings: Enterococcus faecalis
[10] = test system: Enterobacter cloacae 1321E; test: In vitro antibacterial activity (MIC); type: cell-based
S. aureus 2101 MR = test: In vitro antibacterial activity (MIC); type: cell-based; settings: Staphylococcus aureus
[11] = test system: Providencia stuartii Bs 60; test: In vitro antibacterial activity (MIC); type: cell-based; settings: BS60
[12] = test system: Serratia marcescens ATCC 2902; test: In vitro antibacterial activity (MIC); type: cell-based; settings: ATCC2902
S. aureus 5635 MR = test: In vitro antibacterial activity (MIC); type: cell-based; settings: Staphylococcus aureus
P. rettgeri ATCC 925 = test: In vitro antibacterial activity (MIC); type: cell-based; settings: Providencia rettgeri, ATCC925
[13] = test system: Cirobacter freundii ATCC 8090; test: In vitro antibacterial activity (MIC); type: cell-based
[14] = test system: Klebsiella aerogenes 1522E; test: In vitro antibacterial activity (MIC); type: cell-based
[15] = test system: Staphylococcus aureus Smith; test: Therapeutic efficacy against experimental infections in the mouse; type: in vivo; settings: sc, subcutaneous administration, therapy 2 hours after infection, read-out: ED50 (cumulative dose)
[16] = test system: Proteus mirabilis FI 7474; test: In vitro antibacterial activity (MIC); type: cell-based; settings: FI7474
A. calcolaceticus N 409 = test: In vitro antibacterial activity (MIC); type: cell-based
[17] = Pharmacokinetic parameters of prodrug esters; type: in vivo; settings: mouse; last line of Table 4
bacterial β-lactamases = test: Stability towards bacterial β-lactamases; type: in vitro ADME; settings: compared with the prior-described mixture
[18] = Chemical stability over the whole pH-range; type: physicochemical; settings: compared with the prior-described mixture
renal dehydropeptidases = test: Stability towards renal dehydropeptidases; type: in vitro ADME; settings: compared with the prior-described mixture

For COCC1=C(C(=O)O)N2C(=O)[C@H]([C@@H](C)O)[C@H]2S1 [5R,6S,1'R isomer], the MIC (S. faecalis ATCC 6057) was 1.56 µg/mL (≈ 6.02 µM), the MIC [1] was > 25 µg/mL and the MIC (E. cloacae P99 cef. R.) was 0.39 µg/mL (≈ 1.5 µM). For the same compound, the MIC (S. salivarius ATCC 9758) was 0.022 µg/mL (≈ 0.0848 µM), the MIC (C. freundii 4051 cef. R) was 6.25 µg/mL (≈ 24.1 µM) and the MIC (E. aerogenes 225) was 0.78 µg/mL (≈ 3.01 µM). It also gave an ED50 (Escherichia coli G; sc, subcutaneous administration) of 6.7 mg/kg, an MIC (E. aerogenes F46) of 0.78 µg/mL (≈ 3.01 µM) and an MIC (S. aureus 2 MR) of 3.12 µg/mL (≈ 12 µM). For the same compound, the MIC (E. coli R997 (HSM-1)) was 0.39 µg/mL (≈ 1.5 µM), the MIC (P. aeruginosa ATCC 19660) was > 25 µg/mL and the MIC (E. coli B cef. R) was 0.78 µg/mL (≈ 3.01 µM). It also gave an MIC [2] of 1.56 µg/mL (≈ 6.02 µM), an MIC (P. morganii ATCC 25830) of 1.56 µg/mL (≈ 6.02 µM) and an MIC (P. vulgaris 51) of 0.39 µg/mL (≈ 1.5 µM). The MIC (Escherichia coli K 12) was 0.39 µg/mL (≈ 1.5 µM), the MIC [3] was 0.39 µg/mL (≈ 1.5 µM) and the “efficacy in the control and treatment of experimental infections” value [4] was “excellent efficacy”. It also gave an MIC [5] of 0.19 µg/mL (≈ 0.733 µM), an MIC (S. aureus 39/2 Pen^+) of 0.09 µg/mL (≈ 0.347 µM) and an MIC [6] of 0.022 µg/mL (≈ 0.0848 µM). The MIC [7] was 0.09 µg/mL (≈ 0.347 µM), the MIC [8] was 0.09 µg/mL (≈ 0.347 µM) and the MIC [9] was 0.39 µg/mL (≈ 1.5 µM). It also gave an MIC (S. faecium ATCC 8043) of 3.12 µg/mL (≈ 12 µM), an MIC (S. faecalis 55) of 3.12 µg/mL (≈ 12 µM) and an MIC [10] of 0.39 µg/mL (≈ 1.5 µM). For the same compound, the MIC (S. aureus 2101 MR) was 3.12 µg/mL (≈ 12 µM), the MIC [11] was 3.12 µg/mL (≈ 12 µM) and the MIC [12] was 6.25 µg/mL (≈ 24.1 µM). For the same compound, the MIC (S. aureus 5635 MR) was 0.19 µg/mL (≈ 0.733 µM), the MIC (P. rettgeri ATCC 925) was 1.56 µg/mL (≈ 6.02 µM) and the MIC [13] was 0.39 µg/mL (≈ 1.5 µM). It also gave an MIC [14] of 0.39 µg/mL (≈ 1.5 µM), an ED50 [15] of 0.21 mg/kg and an MIC [16] of 0.78 µg/mL (≈ 3.01 µM). It also gave an MIC (A. calcolaceticus N 409) of 6.25 µg/mL (≈ 24.1 µM).

In the case of COCC1=C(C(=O)OCOC(C)=O)N2C(=O)[C@H]([C@@H](C)O)[C@H]2S1 [Compound 1, Acetoxymethyl (5R,6S)-6-[l(R)-Hydroxyethyl]-2-Methoxymethyl-Penem-3-Carboxylate], the “[drawing 32] (parameter name shown only as drawing)” value [17] is reported as 7.

With COCC1=C(C(=O)OCc2oc(=O)oc2C)N2C(=O)[C@H]([C@@H](C)O)[C@H]2S1 [Compound 20, (5-Methyl-2-Oxo-1,3-Dioxolen-4-yl)Methyl (5R,6S)-6-[1(R)-Hydroxyethyl]-2-Methoxymethyl-Penem-3-Carboxylate] the ED50 (Escherichia coli G; oral administration) was 13.1 mg/kg and the “[drawing 32] (parameter name shown only as drawing)” value [17] was 7.

With CC(=O)OCOC(=O)C1=C(COC(N)=O)S[C@@H]2[C@@H]([C@@H](C)O)C(=O)N12 [FCE 22891, reference compound] the “[drawing 32] (parameter name shown only as drawing)” value [17] was 6.

In the case of COCC1=C(C(=O)O)N2C(=O)[C@H]([C@@H](C)O)[C@H]2S1 [compound of formula (I), (5R,6S, 1'R)-configured 6-(1-hydroxyethyl)-2-methoxymethyl-penem-3-carboxylic acid], the “stability towards bacterial β-lactamases” value (bacterial β-lactamases) is reported as “superior stability”, the chemical stability [18] is reported as “considerably improved chemical stability” and the “stability towards renal dehydropeptidases” value (renal dehydropeptidases) is reported as “superior stability”.
